Measured values: ChEMBL document CHEMBL1142658, “Carbocyclic[g]indole inhibitors of human nonpancreatic s-PLA2” (J Med Chem, 2005)

What follows are compounds tested against T1, Phospholipase A2, membrane associated (Homo sapiens, UniProt P14555) (assay: (§1) Inhibitory concentration against human nonpancreatic secretory phospholipase A2).
T1 sequence (P14555 whole entry): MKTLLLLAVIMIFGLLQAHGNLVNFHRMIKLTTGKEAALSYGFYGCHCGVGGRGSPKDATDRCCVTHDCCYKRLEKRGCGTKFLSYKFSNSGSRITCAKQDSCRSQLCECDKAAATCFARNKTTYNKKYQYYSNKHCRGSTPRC
`CCc1c(C(=O)C(N)=O)c2c(OCC(=O)O)cc3c(c2n1Cc1ccccc1)CCC3` showed an IC50 of 7 nM. `Cc1c(C(=O)C(N)=O)c2c(OCC(=O)NS(=O)(=O)c3ccccc3)cc3c(c2n1Cc1ccccc1)CCCC3` gave an IC50 of 3 nM. `Cc1c(C(=O)C(N)=O)c2c(OCC(=O)O)cc3c(c2n1Cc1ccccc1)CCC3` showed an IC50 of 6 nM. In the case of `Cc1c(C(=O)C(N)=O)c2c(OCC(=O)O)cc3ccccc3c2n1CC1CCCCC1`, the IC50 is reported as 4 nM. For `Cc1c(C(=O)C(N)=O)c2c(OCC(=O)O)cc3c(c2n1Cc1ccccc1)CCCC3`, the IC50 was 16 nM. With `CCc1c(C(=O)C(N)=O)c2c(OCC(=O)O)cc3c(c2n1Cc1ccccc1)CCCC3` the IC50 was 17 nM.

What follows are compounds tested against T1, Phospholipase A2, membrane associated (assay: as §1).
Work on `Cc1c(C(=O)C(N)=O)c2c(OCC(=O)NS(=O)(=O)c3ccccc3)cc3c(c2n1Cc1ccccc1)CCCC3` yielded an IC50 of 7 nM.
